Structures can show the parent of a compound that is named as a salt.
Tested on: not given
Test: not given
Details: not given

| SMILES | melting point |
| --- | --- |
| Cn1c2c(c3ccc(-n4ccc(-c5ccc(C(F)(F)F)cn5)cc4=O)cc31)CCNCC2 (as salt: hydrochloride) [Example 3, 1-(6-Methyl-1,2,3,4,5,6-hexahydroazepino[4,5-b]indol-8-yl)-4-(5-(trifluoromethyl)pyridin-2-yl)pyridin-2(1H)-one dihydrochloride] | 310 to 312 °C |
| O=c1cc(-c2ccc(C(F)(F)F)cn2)ccn1-c1ccc2c3c([nH]c2c1)CCNCC3 (as salt: hydrochloride) [Example 9, 1-(1,2,3,4,5,6-Hexahydroazepino[4,5-b]indol-8-yl)-4-(5-(trifluoromethyl)pyridin-2-yl)pyridin-2(1H)-one dihydrochloride] | 288 to 290 °C |
| Cn1c2c(c3ccc(-n4ncc(OCc5ccc(F)cn5)cc4=O)cc31)CCNCC2 (as salt: hydrochloride) [Example 10, 5-((5-Fluoropyridin-2-yl)methoxy)-2-(6-methyl-1,2,3,4,5,6-hexahydroazepino[4,5-b]indol-8-yl)pyridazin-3(2H)-one dihydrochloride] | 250 to 254 °C |
| Cl.O=c1cc(OCc2ccccc2)ccn1-c1ccc2c3c([nH]c2c1)CCNCC3 [Example 7, 4-(Benzyloxy)-1-(1,2,3,4,5,6-hexahydroazepino[4,5-b]indol-8-yl)pyridin-2(1H)-one hydrochloride] | 258 to 260 °C |
| CC(C)N1CCc2c(n(C)c3cc(-n4ccc(OCc5ccccc5)cc4=O)ccc23)CC1.Cl [Example 15, 4-(Benzyloxy)-1-(3-isopropyl-6-methyl-1,2,3,4,5,6-hexahydroazepino[4,5-b]indol-8-yl)pyridin-2(1H)-one hydrochloride] | 256 to 258 °C |
| CC(C)N1CCc2[nH]c3cc(-n4ccc(OCc5ccccc5)cc4=O)ccc3c2CC1.Cl [Example 17, 4-(Benzyloxy)-1-(3-isopropyl-1,2,3,4,5,6-hexahydroazepino[4,5-b]indol-8-yl)pyridin-2(1H)-one hydrochloride] | 152 to 155 °C |
| Cl.Cn1c2c(c3ccc(-n4ccc(-c5ccc(C(F)(F)F)cn5)cc4=O)cc31)CCCNC2 [Example 20] | 288 to 296 °C (dec.) |
| Cl.Cn1c2c(c3ccc(-n4ccc(-c5ccc(C(F)(F)F)cc5)cc4=O)cc31)CCNCC2 [Example 41] | 306 to 310 °C (dec.) |

Second part, the molecule after the results:

| melting point | SMILES |
| --- | --- |
| 296 to 300 °C | Cn1c2c(c3ccc(-n4ccc(OCc5ccc(C(F)(F)F)nc5)cc4=O)cc31)CCNCC2 (as salt: hydrochloride) [Example 5, 1-(6-Methyl-1,2,3,4,5,6-hexahydroazepino[4,5-b]indol-8-yl)-4-((6-(trifluoromethyl)pyridin-3-yl)methoxy)pyridin-2(1H)-one dihydrochloride] |
| 246 to 248 °C | CCN1CCc2c(n(C)c3cc(-n4ccc(OCc5ccccc5)cc4=O)ccc23)CC1.Cl [Example 14, 4-(Benzyloxy)-1-(3-ethyl-6-methyl-1,2,3,4,5,6-hexahydroazepino[4,5-b]indol-8-yl)pyridin-2(1H)-one hydrochloride] |
| 210 to 218 °C (dec.) | Cl.Cn1c2c(c3ccc(-n4ccc(OCc5ccccc5)cc4=O)cc31)CCCNC2 [Example 18, 4-(Benzyloxy)-1-(10-methyl-1,2,3,4,5,10-hexahydroazepino[3,4-b]indol-8-yl)pyridin-2(1H)-one hydrochloride] |
| 268 to 275 °C (dec.) | Cl.Cn1c2c(c3ccc(-n4ccc(OCc5ccc(F)cn5)cc4=O)cc31)CCCNC2 [Example 19, 4-((5-Fluoropyridin-2-yl)methoxy)-1-(10-methyl-1,2,3,4,5,10-hexahydroazepino[3,4-b]indol-8-yl)pyridin 2(1H)-one hydrochloride] |
| 264 to 270 °C (dec.) | Cl.Cn1c2c(c3ccc(-n4ccc(-c5ccc(C(F)(F)F)cc5)cc4=O)cc31)CNCCC2 [Example 26] |
| 194 to 202 °C (dec.) | Cl.Cn1c2c(c3ccc(-n4ccc(OCc5ccc(F)cn5)cc4=O)cc31)CCNCC2 [Example 40] |

Molecular target: human MCH-1 receptor (Homo sapiens (Human), UniProt Q99705)
Sequence (Q99705 whole entry): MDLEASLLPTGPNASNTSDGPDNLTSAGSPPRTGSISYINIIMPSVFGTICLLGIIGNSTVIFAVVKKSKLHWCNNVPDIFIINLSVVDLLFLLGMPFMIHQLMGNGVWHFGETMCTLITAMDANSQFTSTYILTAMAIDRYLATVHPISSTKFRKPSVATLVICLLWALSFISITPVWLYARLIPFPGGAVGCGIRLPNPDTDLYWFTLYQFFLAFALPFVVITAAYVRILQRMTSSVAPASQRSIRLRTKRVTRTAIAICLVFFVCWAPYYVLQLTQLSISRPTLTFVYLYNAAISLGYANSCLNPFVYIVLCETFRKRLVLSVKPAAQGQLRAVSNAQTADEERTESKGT
Test: Binding Assay for Human Melanin-Concentrating Hormone (MCH-1) Receptor
Details: radioligand displacement, membranes from CHO-K1 cells expressing human MCH-1 receptor; Ki from IC50 by Cheng Prusoff equation; read-out: MCH1 Ki
Description: Binding Assay for Human Melanin-Concentrating Hormone (MCH-1) Receptor
Evaluation of the affinity of compounds for the human MCH-1 receptor was accomplished using 4-(3,4,5-tritritiumbenzyloxy)-1-(1-(2-(pyrrolidin-1-yl)ethyl)-1H-indazol-5-yl)pyridin-2(1H)-one and membranes prepared from stable CHO-K1 cells expressing the human MCH-1 receptor obtained from Euroscreen (Batch 1138). Cell membrane homogenates (8.92 μg protein) were incubated for 60 min at 25° C. with 1.4 nM of the [^3H]-labeled compound in the absence or presence of the test compound in 50 mM Tris-HCl buffer, pH 7.4. Nonspecific binding was determined in the presence of 50 μM 1-(5-(4-cyanophenyl)bicyclo[3.1.0]hexan-2-yl)-3-(4-fluoro-3-(trifluoromethyl)phenyl)-1-(3-(4-methylpiperazin-1-yl)propyl)urea. Following incubation, the samples were filtered rapidly under vacuum through Skatron 11731 filters, pre-soaked in 0.5% polyethylenimine, and washed with ice-cold 50 mM Tris-HCl buffer, pH 7.4, (wash setting 9,9,0) using a Skatron cell harvester. The filters were counted for radioactivity in a liquid scintillation counter (Tri-Carb 2100TR, Packard) using a scintillation cocktail (Ultima Gold MV, Perkin Elmer).
The results are expressed as a percent inhibition of the control radioligand specific binding. The IC50 value (concentration causing a half-maximal inhibition of control specific binding) and Hill coefficient (nH) were determined by non-linear regression analysis of the competition curve using Hill equation curve fitting. The inhibition constant (Ki) was calculated from the Cheng Prusoff equation: (Ki=IC50/(1+(L/KD)), where L=concentration of radioligand in the assay, and KD=affinity of the radioligand for the receptor.

| SMILES | Ki |
| --- | --- |
| Cl.O=c1cc(OCc2ccccc2)ccn1-c1ccc2c3c([nH]c2c1)CCNCC3 [Example 7, 4-(Benzyloxy)-1-(1,2,3,4,5,6-hexahydroazepino[4,5-b]indol-8-yl)pyridin-2(1H)-one hydrochloride] | 6 nM |
| CC(C)N1CCc2c(n(C)c3cc(-n4ccc(OCc5ccccc5)cc4=O)ccc23)CC1.Cl [Example 15, 4-(Benzyloxy)-1-(3-isopropyl-6-methyl-1,2,3,4,5,6-hexahydroazepino[4,5-b]indol-8-yl)pyridin-2(1H)-one hydrochloride] | 10.4 nM |
| CC(C)N1CCc2[nH]c3cc(-n4ccc(OCc5ccccc5)cc4=O)ccc3c2CC1.Cl [Example 17, 4-(Benzyloxy)-1-(3-isopropyl-1,2,3,4,5,6-hexahydroazepino[4,5-b]indol-8-yl)pyridin-2(1H)-one hydrochloride] | 7.2 nM |
| Cn1c2c(c3ccc(N4CCN(CCc5ccc(F)cc5)CC4=O)cc31)CCNCC2 [Example 97, 4-(4-Fluorophenethyl)-1-(6-methyl-1,2,3,4,5,6-hexahydroazepino[4,5-b]indol-8-yl)piperazin-2-one dihydrochloride] | 13 nM |
| CN1CCc2c(n(C)c3cc(N4CCN(CCc5ccc(F)cc5)CC4=O)ccc23)CC1 [Example 98, 1-(3,6-Dimethyl-1,2,3,4,5,6-hexahydroazepino[4,5-b]indol-8-yl)-4-(4-fluorophenethyl)piperazin-2-one dihydrochloride] | 13 nM |
| CCN1CCc2c(n(C)c3cc(N4CCN(CCc5ccc(F)cc5)CC4=O)ccc23)CC1 [Example 99, 1-(3-Ethyl-6-methyl-1,2,3,4,5,6-hexahydroazepino[4,5-b]indol-8-yl)-4-(4-fluorophenethyl)piperazin-2-one dihydrochloride] | 17 nM |
| Cn1c2c(c3ccc(-n4ccc(CCc5ccccc5)nc4=O)cc31)CCNCC2 [Example 101, 1-(6-Methyl-1,2,3,4,5,6-hexahydroazepino[4,5-b]indol-8-yl)-4-phenethylpyrimidin-2(1H)-one hydrochloride] | 9.9 nM |
| Cn1c2c(c3ccc(-n4ccc(OCc5ccc(F)cn5)cc4=O)cc31)C(=O)NCCC2 [Example 104, 8-(4-((5-Fluoropyridin-2-yl)methoxy)-2-oxopyridin-1(2H)-yl)-6-methyl-2,3,4,5-tetrahydroazepino[4,3-b]indol-1(6H)-one] | 149 nM |
| Cn1c2c(c3ccc(-n4ccc(CCc5ccccc5)nc4=O)cc31)CNCCC2 [Example 107, 1-(6-Methyl-1,2,3,4,5,6-hexahydroazepino[4,3-b]indol-8-yl)-4-phenethylpyrimidin-2(1H)-one hydrochloride] | 9.7 nM |
| Cn1c2c(c3ccc(-n4ccc(-c5ccc(C(F)(F)F)nc5)nc4=O)cc31)CNCCC2 [Example 108, 1-(6-Methyl-1,2,3,4,5,6-hexahydroazepino[4,3-b]indol-8-yl)-4-(6-(trifluoromethyl)pyridin-3-yl)pyrimidin-2(1H)-one hydrochloride] | 60 nM |
| Cn1c2c(c3ccc(-n4ccc(OCc5ccc(Cl)cc5)cc4=O)nc31)CCNCC2 [Example 109, 4-(4-Chlorobenzyloxy)-1-(10-methyl-5,6,7,8,9,10-hexahydropyrido[3′,2′:4,5]pyrrolo[2,3-d]azepin-2-yl)pyridin-2(1H)-one hydrochloride] | 9.6 nM |
| Cn1c2c(c3ccc(-n4ccc(OCc5ncc(F)cc5F)cc4=O)nc31)CCNCC2 [Example 111, 4-((3,5-Difluoropyridin-2-yl)methoxy)-1-(10-methyl-5,6,7,8,9,10-hexahydropyrido[3′,2′:4,5]pyrrolo[2,3-d]azepin-2-yl)pyridin-2(1H)-one hydrochloride] | 71 nM |
| Cn1c2c(c3ccc(-n4ccc(OCc5ncc(F)cc5F)cc4=O)nc31)CNCCC2 [Example 114, 4-((3,5-Difluoropyridin-2-yl)methoxy)-1-(10-methyl-5,6,7,8,9,10-hexahydropyrido[3′,2′:4,5]pyrrolo[3,2-c]azepin-2-yl)pyridin-2(1H)-one hydrochloride] | 44 nM |

Second part, the molecule after the results:

| Ki | SMILES |
| --- | --- |
| 9.6 nM | CCN1CCc2c(n(C)c3cc(-n4ccc(OCc5ccccc5)cc4=O)ccc23)CC1.Cl [Example 14, 4-(Benzyloxy)-1-(3-ethyl-6-methyl-1,2,3,4,5,6-hexahydroazepino[4,5-b]indol-8-yl)pyridin-2(1H)-one hydrochloride] |
| 11.8 nM | Cl.Cn1c2c(c3ccc(-n4ccc(OCc5ccccc5)cc4=O)cc31)CCCNC2 [Example 18, 4-(Benzyloxy)-1-(10-methyl-1,2,3,4,5,10-hexahydroazepino[3,4-b]indol-8-yl)pyridin-2(1H)-one hydrochloride] |
| 14.8 nM | Cl.Cn1c2c(c3ccc(-n4ccc(OCc5ccc(F)cn5)cc4=O)cc31)CCCNC2 [Example 19, 4-((5-Fluoropyridin-2-yl)methoxy)-1-(10-methyl-1,2,3,4,5,10-hexahydroazepino[3,4-b]indol-8-yl)pyridin 2(1H)-one hydrochloride] |
| 10 nM | Cn1c2c(c3ccc(-n4ccc(OCc5ccc(Cl)cc5)cc4=O)cc31)CCNCC2 [Example 100, 4-(4-Chlorobenzyloxy)-1-(6-methyl-1,2,3,4,5,6-hexahydroazepino[4,5-b]indol-8-yl)pyridin-2(1H)-one hydrochloride] |
| 6 nM | Cn1c2c(c3ccc(-n4ccc(OCc5ccc(F)cc5)cc4=O)cc31)CNCCC2 [Example 103, 4-(4-Fluorobenzyloxy)-1-(6-methyl-1,2,3,4,5,6-hexahydroazepino[4,3-b]indol-8-yl)pyridin-2(1H)-one hydrochloride] |
| 7.6 nM | Cn1c2c(c3ccc(-n4ccc(OCc5ccc(Cl)cc5)cc4=O)cc31)CNCCC2 [Example 105, 4-(4-Chlorobenzyloxy)-1-(6-methyl-1,2,3,4,5,6-hexahydroazepino[4,3-b]indol-8-yl)pyridin-2(1H)-one hydrochloride] |
| 12 nM | Cn1c2c(c3ccc(-n4ccc(OCc5ccc(F)cc5)cc4=O)nc31)CCNCC2 [Example 110, 4-(4-Fluorobenzyloxy)-1-(10-methyl-5,6,7,8,9,10-hexahydropyrido[3′,2′:4,5]pyrrolo[2,3-d]azepin-2-yl)pyridin-2(1H)-one hydrochloride] |
| 8.9 nM | Cn1c2c(c3ccc(-n4ccc(OCc5ccc(F)cc5)cc4=O)nc31)CNCCC2 [Example 112, 4-(4-Fluorobenzyloxy)-1-(10-methyl-5,6,7,8,9,10-hexahydropyrido[3′,2′:4,5]pyrrolo[3,2-c]azepin-2-yl)pyridin-2(1H)-one hydrochloride] |
| 5.9 nM | Cn1c2c(c3ccc(-n4ccc(OCc5ccc(Cl)cc5)cc4=O)nc31)CNCCC2 [Example 113, 4-(4-Chlorobenzyloxy)-1-(10-methyl-5,6,7,8,9,10-hexahydropyrido[3′,2′:4,5]pyrrolo[3,2-c]azepin-2-yl)pyridin-2(1H)-one hydrochloride] |

Reference: patent US8637501B2, “Azinone-substituted azepino[b]indole and pyrido-pyrrolo-azepine MCH-1 antagonists, methods of making, and use thereof” (Albany Molecular Research, Inc., priority 2009, dated 2014)
